Test results reported in US9290451B2 (Hoffmann-La Roche Inc., priority 2011, dated 2016).
pEC50: −log10 of the molar value.

Columns and labels:
human CB2 receptors = human CB2 receptors (Homo sapiens (Human), UniProt P34972); test: cAMP assay, CHO cells expressing human CB2 receptors; type: cell-based; details: CHO cells expressing human CB2, cAMP; read-out: human CB2 EC50
In short: (§1)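 In this cellular cAMP test, IBMX (1 mM) blocked phosphodiesterase during a 30-min, 30 °C compound exposure. Accumulated cAMP was measured by a lysis-based TR-FRET kit and interpolated from a standard curve to give EC50.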

human CB1 receptors = human CB1 receptors (Homo sapiens (Human), UniProt P21554); test: cAMP assay, CHO cells expressing human CB1 receptors; type: cell-based; details: CHO cells expressing human CB1, cAMP; read-out: human CB1 EC50
human CB1 receptors, sequence (P21554 whole entry): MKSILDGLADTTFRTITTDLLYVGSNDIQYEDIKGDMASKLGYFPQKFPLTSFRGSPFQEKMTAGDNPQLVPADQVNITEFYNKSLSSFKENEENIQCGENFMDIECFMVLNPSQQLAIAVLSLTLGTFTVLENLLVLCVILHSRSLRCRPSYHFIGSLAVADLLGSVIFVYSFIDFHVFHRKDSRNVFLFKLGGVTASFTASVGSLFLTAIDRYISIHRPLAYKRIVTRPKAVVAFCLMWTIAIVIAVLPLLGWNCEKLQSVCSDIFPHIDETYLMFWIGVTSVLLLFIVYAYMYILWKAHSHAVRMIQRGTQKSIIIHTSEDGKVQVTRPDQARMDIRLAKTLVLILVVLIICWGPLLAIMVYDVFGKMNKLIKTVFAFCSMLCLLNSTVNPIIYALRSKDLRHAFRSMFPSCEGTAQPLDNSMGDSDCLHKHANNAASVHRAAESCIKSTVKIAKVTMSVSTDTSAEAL
In short: as §1

human CB2 receptors, sequence (P34972 whole entry): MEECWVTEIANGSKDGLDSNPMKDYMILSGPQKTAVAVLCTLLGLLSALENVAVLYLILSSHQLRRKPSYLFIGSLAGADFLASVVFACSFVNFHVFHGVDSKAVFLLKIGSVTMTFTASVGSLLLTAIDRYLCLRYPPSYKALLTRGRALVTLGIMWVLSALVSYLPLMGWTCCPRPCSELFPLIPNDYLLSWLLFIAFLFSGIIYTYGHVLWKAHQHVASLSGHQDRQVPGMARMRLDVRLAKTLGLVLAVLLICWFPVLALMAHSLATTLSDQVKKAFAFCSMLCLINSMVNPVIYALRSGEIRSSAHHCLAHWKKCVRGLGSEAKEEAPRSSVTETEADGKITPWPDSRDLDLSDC

SMILES | pEC50 (human CB2 receptors) | pEC50 (human CB1 receptors)
CNC(=O)[C@@H](NC(=O)c1cccc(-c2ccc(F)c(Cl)c2)n1)C(C)(C)C [Example 216, (S)-6-(3-Chloro-4-fluorophenyl)-N-(3,3-dimethyl-1-(methylamino)-1-oxobutan-2-yl)picolinamide] | 8.57 | 6.94
Cc1nc(C(C)(C)NC(=O)c2ccc(C3CCOC3)c(OCC3CC3)n2)no1 (stereo not drawn) [Example 124, 6-Cyclopropylmethoxy-5-(tetrahydro-furan-3-yl)-pyridine-2-carboxylic acid [1-methyl-1-(5-methyl-[1,2,4]oxadiazol-3-yl)-ethyl]-amide] | 7.10 | < 5.00
NC(=O)[C@H](NC(=O)c1ccc(C2CC2)c(OCC2CC2)n1)c1ccccc1 [Example 173, (R)-N-(2-Amino-2-oxo-1-phenylethyl)-5-cyclopropyl-6-(cyclopropylmethoxy)picolinamide] | 7.64 | < 5.00
CC1CC(NC(=O)c2cccc(-c3cccc(Cl)c3)n2)CCO1 (stereo not drawn) [Example 26, 6-(3-Chloro-phenyl)-pyridine-2-carboxylic acid (2-methyl-tetrahydro-pyran-4-yl)-amide] | 6.16 | < 5.00
CCC(CC)(NC(=O)c1ccc(N2CC(F)(F)C2)c(OCC2CC2)n1)C(=O)O [Example 207, 2-(6-(Cyclopropylmethoxy)-5-(3,3-difluoroazetidin-1-yl)picolinamido)-2-ethylbutanoic acid] | 7.84 | < 5.00
O=C(N[C@H](c1ccccn1)C(F)(F)F)c1cccc(Cc2ccc(F)cc2)n1 [Example 278, 6-(4-Fluoro-benzyl)-pyridine-2-carboxylic acid ((R)-2,2,2-trifluoro-1-pyridin-2-yl-ethyl)-amide] | 7.69 | 6.45
CCC(CC)(NC(=O)c1ccc(C(F)(F)F)c(OCC2CC2)n1)C(=O)OC [Example 249, 2-[(6-Cyclopropylmethoxy-5-trifluoromethyl-pyridine-2-carbonyl)-amino]-2-ethyl-butyric acid methyl ester] | 8.66 | < 5.00
Cc1nc(C(C)(C)NC(=O)c2ccc(C3CCOCC3)c(OCC3CC3)n2)no1 [Example 10, 6-Cyclopropylmethoxy-5-(tetrahydro-pyran-4-yl)-pyridine-2-carboxylic acid [1-methyl-1-(5-methyl-[1,2,4]oxadiazol-3-yl)-ethyl]-amide] | 7.05 | < 5.00
Cc1nc(C(C)(C)NC(=O)c2ccc(C3(O)CCC3)c(OCC3CC3)n2)no1 [Example 160, 6-Cyclopropylmethoxy-5-(1-hydroxy-cyclobutyl)-pyridine-2-carboxylic acid [1-methyl-1-(5-methyl-[1,2,4]oxadiazol-3-yl)-ethyl]-amide] | 6.91 | < 5.00
CC(C)(NC(=O)c1ccc(C2CCOCC2)c(OCC2CC2)n1)c1ncco1 [Example 93, 6-Cyclopropylmethoxy-5-(tetrahydro-pyran-4-yl)-pyridine-2-carboxylic acid (1-methyl-1-oxazol-2-yl-ethyl)-amide] | 6.92 | < 5.00
CC(C)(CCS(C)(=O)=O)NC(=O)c1ccc(C2CC2)c(OCC2CC2)n1 [Example 349, 5-Cyclopropyl-6-cyclopropylmethoxy-pyridine-2-carboxylic acid (3-methanesulfonyl-1,1-dimethyl-propyl)-amide] | 6.32 | < 5.00
O=C(N[C@@H](c1cccnc1)C(F)(F)F)c1ccc(C2CC2)c(OCC2CC2)n1 [Example 217, (S)-5-Cyclopropyl-6-(cyclopropylmethoxy)-N-(2,2,2-trifluoro-1-(pyridin-3-yl)ethyl)-picolinamide] | 7.39 | < 5.00
CCC(CC)(NC(=O)c1ccc(C2CC2)c(OCC2CC2)n1)C(=O)NCC1CC1 [Example 284, 5-Cyclopropyl-6-cyclopropylmethoxy-pyridine-2-carboxylic acid [1-(cyclopropylmethyl-carbamoyl)-1-ethyl-propyl]-amide] | 7.57 | < 5.00
CNC(=O)[C@@H](NC(=O)c1ccc(N2CC(F)(F)C2)c(OCC2CCCO2)n1)C(C)(C)C (stereo partly drawn) [Example 206, 5-(3,3-Difluoroazetidin-1-yl)-N-((S)-3,3-dimethyl-1-(methylamino)-1-oxobutan-2-yl)-6-((tetrahydrofuran-2-yl)methoxy)picolinamide] | 7.60 | < 5.00
CC(C)(O)[C@H](CC1CC1)NC(=O)c1ccc(C2CC2)c(OCC2CC2)n1 [Example 139, 5-Cyclopropyl-6-cyclopropylmethoxy-pyridine-2-carboxylic acid ((S)-1-cyclopropylmethyl-2-hydroxy-2-methyl-propyl)-amide] | 6.95 | < 5.00
Cc1nc(C(C)(CC2CC2)NC(=O)c2ccc(N3CC(F)(F)C3)c(OCC3CC3)n2)no1 (stereo not drawn) [Example 341, 6-Cyclopropylmethoxy-5-(3,3-difluoro-azetidin-1-yl)-pyridine-2-carboxylic acid [2-cyclopropyl-1-methyl-1-(5-methyl-[1,2,4]oxadiazol-3-yl)-ethyl]-amide] | 8.08 | < 5.00
CNC(=O)[C@H](CC(C)(C)C)NC(=O)c1ccc(C2CC2)c(S(=O)(=O)CC(C)C)n1 [Example 361, 5-Cyclopropyl-6-(2-methyl-propane-1-sulfonyl)-pyridine-2-carboxylic acid ((S)-3,3-dimethyl-1-methylcarbamoyl-butyl)-amide] | 7.37 | < 5.00
CC(C)(NC(=O)c1ccc(C2CCCO2)c(-c2cccc(Cl)c2)n1)c1nccs1 (stereo not drawn) [Example 127, 6-(3-Chloro-phenyl)-5-(tetrahydro-furan-2-yl)-pyridine-2-carboxylic acid (1-methyl-1-thiazol-2-yl-ethyl)-amide] | 6.65 | < 5.00
Cc1nc(C(C)(C)NC(=O)c2cccc(-c3ccc(Cl)c(F)c3)n2)no1 [Example 267, 6-(4-Chloro-3-fluoro-phenyl)-pyridine-2-carboxylic acid [1-methyl-1-(5-methyl-[1,2,4]oxadiazol-3-yl)-ethyl]-amide] | 7.58 | < 5.00
CCC(CC)(NC(=O)c1ccc(C2CC2)c(OCC2CC2)n1)C(=O)N1CCC1 [Example 274, 5-Cyclopropyl-6-cyclopropylmethoxy-pyridine-2-carboxylic acid [1-(azetidine-1-carbonyl)-1-ethyl-propyl]-amide] | 8.80 | 6.45
CC(C)(NC(=O)c1ccc(C2CCOCC2)c(OCC2CC2)n1)c1nccs1 [Example 34, 6-Cyclopropylmethoxy-5-(tetrahydro-pyran-4-yl)-pyridine-2-carboxylic acid (1-methyl-1-thiazol-2-yl-ethyl)-amide] | 7.27 | < 5.00
CCOC(=O)C(CC)(CC)NC(=O)c1ccc(C2CC2)c(S(=O)(=O)CC(C)C)n1 [Example 360, 2-{[5-Cyclopropyl-6-(2-methyl-propane-1-sulfonyl)-pyridine-2-carbonyl]-amino}-2-ethyl-butyric acid ethyl ester] | 8.62 | 7.05
CCC(CC)(NC(=O)c1ccc(OC)c(-c2cccc(Cl)c2)n1)C(=O)NC [Example 81, 6-(3-Chloro-phenyl)-5-methoxy-pyridine-2-carboxylic acid (1-ethyl-1-methylcarbamoyl-propyl)-amide] | 6.38 | < 5.00
CCC(CC)(NC(=O)c1ccc(C2CC2)c(OCC2CC2)n1)C(=O)NCCO [Example 356, 5-Cyclopropyl-6-cyclopropylmethoxy-pyridine-2-carboxylic acid [1-ethyl-1-(2-hydroxy-ethylcarbamoyl)-propyl]-amide] | 8.28 | < 5.00
CSCC[C@H](NC(=O)c1ccc(N2CC(F)(F)C2)c(OCC2CC2)n1)C(N)=O [Example 342, 6-Cyclopropylmethoxy-5-(3,3-difluoro-azetidin-1-yl)-pyridine-2-carboxylic acid ((S)-1-carbamoyl-3-methylsulfanyl-propyl)-amide] | 8.55 | < 5.00
Cc1nc(C(C)(C)NC(=O)c2cccc(-c3ccc(F)c(Cl)c3)n2)no1 [Example 268, 6-(3-Chloro-4-fluoro-phenyl)-pyridine-2-carboxylic acid [1-methyl-1-(5-methyl-[1,2,4]oxadiazol-3-yl)-ethyl]-amide] | 8.06 | 6.47
CC(C)[C@](C)(CO)NC(=O)c1ccc(C2CC2)c(OCC2CC2)n1 [Example 191, 5-Cyclopropyl-6-cyclopropylmethoxy-pyridine-2-carboxylic acid ((R)-1-hydroxymethyl-1,2-dimethyl-propyl)-amide] | 7.24 | < 5.00
CCC(CC)(NC(=O)c1ccc(C2CC2)c(O[C@@H](CCO)C(F)(F)F)n1)C(=O)NC [Example 319, 5-Cyclopropyl-6-((S)-3-hydroxy-1-trifluoromethyl-propoxy)-pyridine-2-carboxylic acid (1-ethyl-1-methylcarbamoyl-propyl)-amide] | 6.46 | < 5.00
CNC(=O)[C@H](CC(C)(C)C)NC(=O)c1ccc(N2CCC23COC3)c(OCC2CC2)n1 [Example 234, 6-Cyclopropylmethoxy-5-(6-oxa-1-aza-spiro[3.3]hept-1-yl)-pyridine-2-carboxylic acid ((S)-3,3-dimethyl-1-methylcarbamoyl-butyl)-amide] | 8.08 | < 5.00
Cc1nc([C@H](CC2CC2)NC(=O)c2ccc(N3CC(F)(F)C3)c(-c3cccc(Cl)c3)n2)no1 [Example 164, 6-(3-Chloro-phenyl)-5-(3,3-difluoro-azetidin-1-yl)-pyridine-2-carboxylic acid [(S)-2-cyclopropyl-1-(5-methyl-[1,2,4]oxadiazol-3-yl)-ethyl]-amide] | 6.60 | < 5.00
